Data: US4211772A, “Benzopyran glycoside acetals and ketals” (Laboratoires Sarget, priority 1977, dated 1980)
Read-outs that look alike come from different tables or passages of the source.

Key:
[1] = Solubilities in water; assay type: physicochemical; settings: water; read-out: Solubilities in water
[2] = target: T1, Aldose Reductase (Bos taurus, UniProt P16116); experiment: Inhibition of aldose reductase in vitro (enzyme from beef eye lenses, glyceraldehyde substrate); assay type: biochemical; settings: in DMF solution, read-out: percentages of inhibition (aldose reductase)
T1 construct: The enzyme is extracted from beef eye lenses; from tissue; host or cells: beef eye lenses
Text: Inhibition of Aldose Reductase In Vitro
The reoxidation of NADPH coupled to the enzymatic reaction was followed spectrophotometrically at 340 nm.

[3] = Anti-inflammatory activity: carragenin edema test; assay type: in vivo; settings: rat, in vivo, ip, borate buffer pH 7
Summary of the method: (§1)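 Male Wistar EOPS rats receive 0.1 ml of 5% carragenin suspension in physiological serum into the hind-paw metatarsal muscle, with test substance given i.p. in neutralized solution at the same time. Paw edema is measured by plethysmometry at several times after carragenin and reported as % inhibition against pH-matched physiological serum controls.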

[4] = tested on: carragenin edema; experiment: Anti-inflammatory activity: carragenin edema test; assay type: in vivo; settings: for % inhibition of carragenin edema: borate buffer pH 7, 24 h; for inhibition in vivo at 50 mg/kg / inhibition in vivo at 75 mg/kg / inhibition in vivo at 100 mg/kg / inhibition in vivo at 150 mg/kg: Rattus norvegicus, ip
Summary of the method: as §1

Structure (SMILES): C[C@@H]1O[C@@H](Oc2c(-c3ccc(O)c(O)c3)oc3cc(O)cc(O)c3c2=O)[C@@H]2OC3(CCCCC3)O[C@@H]2[C@H]1O [No. 7, 3-O-(2,3-O,O-cyclohexylidene-α-L-rhamnosyl)-quercetin]
- solubility [1]: < 100 µg/mL
- inhibition at 100 µM ([2]; 10^-4 mole/l): 91%
- inhibition at 10 µM ([2]; 10^-5 mole/l): 95%
- inhibition at 1 µM ([2]; 10^-6 mole/l): 84%
- inhibition at 0.1 µM ([2]; 10^-7 mole/l): 87%
- mortality at 24 h ([3]; 100 mg/kg i.p.): 20%
- mortality at 5 h ([3]; 150 mg/kg i.p.): 80%
- % inhibition of carragenin edema ([4]; 50 mg/kg i.p.): 10%
- % inhibition of carragenin edema ([4]; 75 mg/kg i.p.): 84%
- % inhibition of carragenin edema ([4]; 100 mg/kg i.p.): 67%
- % inhibition of carragenin edema ([4]; 150 mg/kg i.p.): 87%
- inhibition in vivo at 50 mg/kg ([4]; 1 h, pH 7, read-out: % inhibition of carragenin edema, 50 mg/kg i.p., borate buffer pH 7, 1 h): 14%
- inhibition in vivo at 50 mg/kg ([4]; 1 h, pH 7, read-out: % inhibition of carragenin edema, 50 mg/kg i.p., borate buffer pH 7, 1 h 1/2): 22%
- inhibition in vivo at 75 mg/kg ([4]; 1 h, pH 7, read-out: % inhibition of carragenin edema, 75 mg/kg i.p., borate buffer pH 7, 1 h): 73%
- inhibition in vivo at 75 mg/kg ([4]; 1 h, pH 7, read-out: % inhibition of carragenin edema, 75 mg/kg i.p., borate buffer pH 7, 1 h 1/2): 91%
- inhibition in vivo at 100 mg/kg ([4]; 1 h, pH 7, read-out: % inhibition of carragenin edema, 100 mg/kg i.p., borate buffer pH 7, 1 h): 51%
- inhibition in vivo at 100 mg/kg ([4]; 1 h, pH 7, read-out: % inhibition of carragenin edema, 100 mg/kg i.p., borate buffer pH 7, 1 h 1/2): 52%
- inhibition in vivo at 150 mg/kg ([4]; 1 h, pH 7, read-out: % inhibition of carragenin edema, 150 mg/kg i.p., borate buffer pH 7, 1 h): 89%
- inhibition in vivo at 150 mg/kg ([4]; 1 h, pH 7, read-out: % inhibition of carragenin edema, 150 mg/kg i.p., borate buffer pH 7, 1 h 1/2): 97%
- inhibition in vivo at 50 mg/kg ([4]; 2 h, pH 7, read-out: % inhibition of carragenin edema, 50 mg/kg i.p., borate buffer pH 7, 2 h): 16%
- inhibition in vivo at 75 mg/kg ([4]; 2 h, pH 7, read-out: % inhibition of carragenin edema, 75 mg/kg i.p., borate buffer pH 7, 2 h): 89%
- inhibition in vivo at 100 mg/kg ([4]; 2 h, pH 7, read-out: % inhibition of carragenin edema, 100 mg/kg i.p., borate buffer pH 7, 2 h): 48%
- inhibition in vivo at 150 mg/kg ([4]; 2 h, pH 7, read-out: % inhibition of carragenin edema, 150 mg/kg i.p., borate buffer pH 7, 2 h): 97%
- inhibition in vivo at 50 mg/kg ([4]; 3 h, pH 7, read-out: % inhibition of carragenin edema, 50 mg/kg i.p., borate buffer pH 7, 3 h): 23%
- inhibition in vivo at 75 mg/kg ([4]; 3 h, pH 7, read-out: % inhibition of carragenin edema, 75 mg/kg i.p., borate buffer pH 7, 3 h): 86%
- inhibition in vivo at 100 mg/kg ([4]; 3 h, pH 7, read-out: % inhibition of carragenin edema, 100 mg/kg i.p., borate buffer pH 7, 3 h): 45%
- inhibition in vivo at 150 mg/kg ([4]; 3 h, pH 7, read-out: % inhibition of carragenin edema, 150 mg/kg i.p., borate buffer pH 7, 3 h): 94%
- inhibition in vivo at 50 mg/kg ([4]; 4 h, pH 7, read-out: % inhibition of carragenin edema, 50 mg/kg i.p., borate buffer pH 7, 4 h): 21%
- inhibition in vivo at 75 mg/kg ([4]; 4 h, pH 7, read-out: % inhibition of carragenin edema, 75 mg/kg i.p., borate buffer pH 7, 4 h): 81%
- inhibition in vivo at 100 mg/kg ([4]; 4 h, pH 7, read-out: % inhibition of carragenin edema, 100 mg/kg i.p., borate buffer pH 7, 4 h): 46%
- inhibition in vivo at 150 mg/kg ([4]; 4 h, pH 7, read-out: % inhibition of carragenin edema, 150 mg/kg i.p., borate buffer pH 7, 4 h): 89%
- inhibition in vivo at 50 mg/kg ([4]; 5 h, pH 7, read-out: % inhibition of carragenin edema, 50 mg/kg i.p., borate buffer pH 7, 5 h): 7%
- inhibition in vivo at 75 mg/kg ([4]; 5 h, pH 7, read-out: % inhibition of carragenin edema, 75 mg/kg i.p., borate buffer pH 7, 5 h): 83%
- inhibition in vivo at 100 mg/kg ([4]; 5 h, pH 7, read-out: % inhibition of carragenin edema, 100 mg/kg i.p., borate buffer pH 7, 5 h): 45%
- inhibition in vivo at 150 mg/kg ([4]; 5 h, pH 7, read-out: % inhibition of carragenin edema, 150 mg/kg i.p., borate buffer pH 7, 5 h): 91%
- inhibition in vivo at 50 mg/kg ([4]; 6 h, pH 7, read-out: % inhibition of carragenin edema, 50 mg/kg i.p., borate buffer pH 7, 6 h): 6%
- inhibition in vivo at 75 mg/kg ([4]; 6 h, pH 7, read-out: % inhibition of carragenin edema, 75 mg/kg i.p., borate buffer pH 7, 6 h): 81%
- inhibition in vivo at 100 mg/kg ([4]; 6 h, pH 7, read-out: % inhibition of carragenin edema, 100 mg/kg i.p., borate buffer pH 7, 6 h): 43%
- inhibition in vivo at 150 mg/kg ([4]; 6 h, pH 7, read-out: % inhibition of carragenin edema, 150 mg/kg i.p., borate buffer pH 7, 6 h): 86%
- inhibition in vivo at 50 mg/kg ([4]; read-out: % inhibition of carragenin edema, 50 mg/kg i.p., borate buffer pH 7, 1/2 h): 0%
- inhibition in vivo at 75 mg/kg ([4]; read-out: % inhibition of carragenin edema, 75 mg/kg i.p., borate buffer pH 7, 1/2 h): 48%
- inhibition in vivo at 100 mg/kg ([4]; read-out: % inhibition of carragenin edema, 100 mg/kg i.p., borate buffer pH 7, 1/2 h): 21%
- inhibition in vivo at 150 mg/kg ([4]; read-out: % inhibition of carragenin edema, 150 mg/kg i.p., borate buffer pH 7, 1/2 h): 70%
